From patent publication US20240190880A1 (THE REGENTS OF THE UNIVERSITY OF MICHIGAN, priority 2021, published 2024)

target: T1, ER (Homo sapiens, UniProt P03372); assay: ER degradation activity, in-cell western blot analysis in T47D cells; assay type: cell-based; conditions: 16 hours, Table A does not say which cell line (T47D or MCF7), read-out: Potency (DC50)
T1 construct: host or cells: T47D and MCF7 human breast cancer cells
T1 sequence (P03372 1-595): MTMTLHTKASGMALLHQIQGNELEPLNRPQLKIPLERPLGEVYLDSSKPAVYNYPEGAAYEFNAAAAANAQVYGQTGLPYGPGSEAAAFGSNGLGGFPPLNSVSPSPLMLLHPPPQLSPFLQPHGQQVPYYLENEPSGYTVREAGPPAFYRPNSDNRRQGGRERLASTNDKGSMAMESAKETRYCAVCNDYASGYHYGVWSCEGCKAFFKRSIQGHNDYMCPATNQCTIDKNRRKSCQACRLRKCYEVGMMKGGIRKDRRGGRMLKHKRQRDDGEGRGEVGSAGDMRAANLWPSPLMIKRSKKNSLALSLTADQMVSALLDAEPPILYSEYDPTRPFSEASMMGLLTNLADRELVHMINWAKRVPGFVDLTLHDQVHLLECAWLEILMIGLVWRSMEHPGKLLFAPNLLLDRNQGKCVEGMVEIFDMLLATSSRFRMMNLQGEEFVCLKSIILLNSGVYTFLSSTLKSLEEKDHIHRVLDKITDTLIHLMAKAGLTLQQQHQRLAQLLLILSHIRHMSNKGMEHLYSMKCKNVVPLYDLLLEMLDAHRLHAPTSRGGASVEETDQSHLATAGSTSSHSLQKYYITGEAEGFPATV
How it was run: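 T47D cells grown in DMEM with 10% FBS were treated with compounds for 16 hours at 0.5% DMSO final. ER was detected by in-cell western using 680/800 near-infrared secondary antibodies. Residual ER is given as percent of untreated and DMSO-treated wells set to 100%.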

| DC50 [nM] | SMILES |
| --- | --- |
| 10 to 100 | C[C@@H]1Cc2c([nH]c3ccccc23)[C@@H](c2c(F)cc(N3CCC(N4CCC(CN5Cc6cc7c(cc6C5)C(=O)N(C5CCC(=O)NC5=O)C7)CC4)CC3)cc2F)N1CC(F)F (stereo partly drawn) [E 86, 3-(6-((1′-(4-((1R,3R)-2-(2,2-difluoroethyl)-3-methyl-2,3,4,9-tetrahydro-1H-pyrido[3,4-b]indol-1-yl)-3,5-difluorophenyl)-[1,4′-bipiperidin]-4-yl)methyl)-1-oxo-3,5,6,7-tetrahydropyrrolo[3,4-f]isoindol-2(1H)-yl)piperidine-2,6-dione] |
| > 100 | C[C@@H]1Cc2c([nH]c3ccccc23)[C@@H](c2c(F)cc(N3CCC(N4Cc5cc6c(cc5C4)C(=O)N(C4CCC(=O)NC4=O)C6=O)CC3)cc2F)N1CC(F)F (stereo partly drawn) [E 88, 6-(1-(4-((1R,3R)-2-(2,2-difluoroethyl)-3-methyl-2,3,4,9-tetrahydro-1H-pyrido[3,4-b]indol-1-yl)-3,5-difluorophenyl)piperidin-4-yl)-2-(2,6-dioxopiperidin-3-yl)-6,7-dihydropyrrolo[3,4-f]isoindole-1,3(2H,5H)-dione] |
| < 10 | C[C@@H]1Cc2c([nH]c3ccccc23)[C@@H](c2c(F)cc(N3CCCC(CN4CCC(C(=O)N5Cc6cc7c(cc6C5)C(=O)N(C5CCC(=O)NC5=O)C7)CC4)C3)cc2F)N1CC(F)F (stereo partly drawn) [E 92, 3-(6-(1-((1-(4-((1R,3R)-2-(2,2-difluoroethyl)-3-methyl-2,3,4,9-tetrahydro-1H-pyrido[3,4-b]indol-1-yl)-3,5-difluorophenyl)piperidin-3-yl)methyl)piperidine-4-carbonyl)-1-oxo-3,5,6,7-tetrahydropyrrolo[3,4-f]isoindol-2(1H)-yl)piperidine-2,6-dione] |
| < 10 | C[C@@H]1Cc2c([nH]c3ccccc23)[C@@H](c2c(F)cc(N3CCC(N4CCC(CC(=O)N5Cc6cc7c(cc6C5)C(=O)N(C5CCC(=O)NC5=O)C7)CC4)CC3)cc2F)N1CC(F)F (stereo partly drawn) [E 94, 3-(6-(2-(1′-(4-((1R,3R)-2-(2,2-difluoroethyl)-3-methyl-2,3,4,9-tetrahydro-1H-pyrido[3,4-b]indol-1-yl)-3,5-difluorophenyl)-[1,4′-bipiperidin]-4-yl)acetyl)-1-oxo-3,5,6,7-tetrahydropyrrolo[3,4-f]isoindol-2(1H)-yl)piperidine-2,6-dione] |
| < 10 | C[C@@H]1Cc2c([nH]c3ccccc23)[C@@H](c2c(F)cc(N3CCC(N4CCN(CC(=O)N5Cc6cc7c(cc6C5)C(=O)N(C5CCC(=O)NC5=O)C7=O)CC4)CC3)cc2F)N1CC(F)F (stereo partly drawn) [E 95, 6-(2-(4-(1-(4-((1R,3R)-2-(2,2-difluoroethyl)-3-methyl-2,3,4,9-tetrahydro-1H-pyrido[3,4-b]indol-1-yl)-3,5-difluorophenyl)piperidin-4-yl)piperazin-1-yl)acetyl)-2-(2,6-dioxopiperidin-3-yl)-6,7-dihydropyrrolo[3,4-f]isoindole-1,3(2H,5H)-dione] |

Further lines, the compound ahead of its results:

| SMILES | DC50 [nM] |
| --- | --- |
| C[C@@H]1Cc2c([nH]c3ccccc23)[C@@H](c2c(F)cc(N3CCC(N4CCC(N5Cc6cc7c(cc6C5)C(=O)N(C5CCC(=O)NC5=O)C7=O)CC4)CC3)cc2F)N1CC(F)F (stereo partly drawn) [E 87, 6-(1′-(4-((1R,3R)-2-(2,2-difluoroethyl)-3-methyl-2,3,4,9-tetrahydro-1H-pyrido[3-4-b]indol-1-yl)-3,5-difluorophenyl)-[1,4′-bipiperidin]-4-yl)-2-(2,6-dioxopiperidin-3-yl)-6,7-dihydropyrrolo[3,4-f]isoindole-1,3(2H,5H)-dione] | > 100 |
| C[C@@H]1Cc2c([nH]c3ccccc23)[C@@H](c2c(F)cc(N3CCC(CN4Cc5cc6c(cc5C4)C(=O)N(C4CCC(=O)NC4=O)C6=O)CC3)cc2F)N1CC(F)F (stereo partly drawn) [E 89, 6-((1-(4-((1R,3R)-2-(2,2-difluoroethyl)-3-methyl-2,3,4,9-tetrahydro-1H-pyrido[3,4-b]indol-1-yl)-3,5-difluorophenyl)piperidin-4-yl)methyl)-2-(2,6-dioxopiperidin-3-yl)-6,7-dihydropyrrolo[3,4-f]isoindole-1,3(2H,5H)-dione] | > 100 |
| C[C@@H]1Cc2c([nH]c3ccccc23)[C@@H](c2c(F)cc(N3CC[C@@H](CN4CCC(C(=O)N5Cc6cc7c(cc6C5)C(=O)N(C5CCC(=O)NC5=O)C7)CC4)C3)cc2F)N1CC(F)F (stereo partly drawn) [E 90, 3-(6-(1-(((S)-1-(4-((1R,3R)-2-(2,2-difluoroethyl)-3-methyl-2,3,4,9-tetrahydro-1H-pyrido[3,4-b]indol-1-yl)-3,5-difluorophenyl)pyrrolidin-3-yl)methyl)piperidine-4-carbonyl)-1-oxo-3,5,6,7-tetrahydropyrrolo[3,4-f]isoindol-2(1H)-yl)piperidine-2,6-dione] | < 10 |
| C[C@@H]1Cc2c([nH]c3ccccc23)[C@@H](c2c(F)cc(N3CC[C@@H](CN4CCC(C(=O)N5Cc6cc7c(cc6C5)C(=O)N(C5CCC(=O)NC5=O)C7=O)CC4)C3)cc2F)N1CC(F)F (stereo partly drawn) [E 91, 6-(1-(((S)-1-(4-((1R,3R)-2-(2,2-difluoroethyl)-3-methyl-2,3,4,9-tetrahydro-1H-pyrido[3,4-b]indol-1-yl)-3,5-difluorophenyl)pyrrolidin-3-yl)methyl)piperidine-4-carbonyl)-2-(2,6-dioxopiperidin-3-yl)-6,7-dihydropyrrolo[3,4-f]isoindole-1,3(2H,5H)-dione] | < 10 |
| C[C@@H]1Cc2c([nH]c3ccccc23)[C@@H](c2c(F)cc(N3CCC(N4CCC(CC(=O)N5Cc6cc7c(cc6C5)C(=O)N(C5CCC(=O)NC5=O)C7=O)CC4)CC3)cc2F)N1CC(F)F (stereo partly drawn) [E 93, 6-(2-(1′-(4-((1R,3R)-2-(2,2-difluoroethyl)-3-methyl-2,3,4,9-tetrahydro-1H-pyrido[3,4-b]indol-1-yl)-3,5-difluorophenyl)-[1,4′-bipiperidin]-4-yl)acetyl)-2-(2,6-dioxopiperidin-3-yl)-6,7-dihydropyrrolo[3,4-f]isoindole-1,3(2H,5H)-dione] | < 10 |
| C[C@@H]1Cc2c([nH]c3ccccc23)[C@@H](c2c(F)cc(N3CCC(N4CCN(CC(=O)N5Cc6cc7c(cc6C5)C(=O)N(C5CCC(=O)NC5=O)C7)CC4)CC3)cc2F)N1CC(F)F (stereo partly drawn) [E 96, 3-(6-(2-(4-(1-(4-((1R,3R)-2-(2,2-difluoroethyl)-3-methyl-2,3,4,9-tetrahydro-1H-pyrido[3,4-b]indol-1-yl)-3,5-difluorophenyl)piperidin-4-yl)piperazin-1-yl)acetyl)-1-oxo-3,5,6,7-tetrahydropyrrolo[3,4-f]isoindol-2(1H)-yl)piperidine-2,6-dione] | < 10 |
| C[C@@H]1Cc2c([nH]c3ccccc23)[C@@H](c2c(F)cc(N3CC4(CCN(CC(=O)N5Cc6cc7c(cc6C5)C(=O)N(C5CCC(=O)NC5=O)C7=O)CC4)C3)cc2F)N1CC(F)F (stereo partly drawn) [E 97, 6-(2-(2-(4-((1R,3R)-2-(2,2-difluoroethyl)-3-methyl-2,3,4,9-tetrahydro-1H-pyrido[3,4-b]indol-1-yl)-3,5-difluorophenyl)-2,7-diazaspiro[3.5]nonan-7-yl)acetyl)-2-(2,6-dioxopiperidin-3-yl)-6,7-dihydropyrrolo[3,4-f]isoindole-1,3(2H,5H)-dione] | 10 to 100 |
| C[C@@H]1Cc2c([nH]c3ccccc23)[C@@H](c2c(F)cc(N3CC4(CCN(CC(=O)N5Cc6cc7c(cc6C5)C(=O)N(C5CCC(=O)NC5=O)C7)CC4)C3)cc2F)N1CC(F)F (stereo partly drawn) [E 98, 3-(6-(2-(2-(4-((1R,3R)-2-(2,2-difluoroethyl)-3-methyl-2,3,4,9-tetrahydro-1H-pyrido[3,4-b]indol-1-yl)-3,5-difluorophenyl)-2,7-diazaspiro[3.5]nonan-7-yl)acetyl)-1-oxo-3,5,6,7-tetrahydropyrrolo[3,4-f]isoindol-2(1H)-yl)piperidine-2,6-dione] | < 10 |
| C[C@@H]1Cc2c([nH]c3ccccc23)[C@@H](c2c(F)cc(N3CCC4(CC3)CC(C(=O)N3CCC(CN5Cc6cc7c(cc6C5)C(=O)N(C5CCC(=O)NC5=O)C7=O)CC3)C4)cc2F)N1CC(F)F (stereo partly drawn) [E 99, 6-((1-(7-(4-((1R,3R)-2-(2,2-difluoroethyl)-3-methyl-2,3,4,9-tetrahydro-1H-pyrido[3,4-b]indol-1-yl)-3,5-difluorophenyl)-7-azaspiro[3.5]nonane-2-carbonyl)piperidin-4-yl)methyl)-2-(2,6-dioxopiperidin-3-yl)-6,7-dihydropyrrolo[3,4-f]isoindole-1,3(2H,5H)-dione] | 10 to 100 |
| C[C@@H]1Cc2c([nH]c3ccccc23)[C@@H](c2c(F)cc(N3CCC4(CC3)CC(C(=O)N3CCC(N5Cc6cc7c(cc6C5)C(=O)N(C5CCC(=O)NC5=O)C7=O)CC3)C4)cc2F)N1CC(F)F (stereo partly drawn) [E 100, 6-(1-(7-(4-((1R,3R)-2-(2,2-difluoroethyl)-3-methyl-2,3,4,9-tetrahydro-1H-pyrido[3,4-b]indol-1-yl)-3,5-difluorophenyl)-7-azaspiro[3.5]nonane-2-carbonyl)piperidin-4-yl)-2-(2,6-dioxopiperidin-3-yl)-6,7-dihydropyrrolo[3,4-f]isoindole-1,3(2H,5H)-dione] | < 10 |
